According to patent US8426459B2, “Composition of flavanolignan and amino acid with improved water solubility” (Agra Group, A.S., priority 2008, dated 2013):
Values after ≈ are worked out from the molar mass of the structure shown. Read-outs that look alike come from different tables or passages of the source.

Legend:
[1] = aqueous solution, 25° C., cited from earlier work; for p I: pI = ½ (pK2 + pK3)
[2] = Solutions of amino acids in water easily prepared at room temperature; type: physicochemical
From the text: When dissolving the mixtures according to the invention in water it is necessary to take into consideration the different solubilities of the basic amino acids themselves.

[3] = Solubility of individual components of flavanolignans in the mixture according to Example 1; type: physicochemical; details: for solubility: read-out: Solubility of individual component in the mixture according to Example 1
From the text: Solubility of individual components of flavanolignans in the mixture according to Example 1

[4] = 25° C., cited from earlier work
[5] = cited from earlier work
[6] = Buffer solution pH 4.5 (Bates, sodium acetate and hydrochloric acid, ionic strength 0.05)

Row | Compound | Solubility of individual component in the mixture according to Example 1 [3, 6] [mg/mL] | Solubility of individual component in the mixture according to Example 1 ([3]; Purified water) [mg/mL] | pKa.1 ([5]; 25° C.) | pKa.2 ([5]; 25° C.) | pKa.3 ([5]; 25° C.) | pKa.1 ([5]; 37° C.) | pKa.2 ([5]; 37° C.) | pKa.3 ([5]; 37° C.) | other results
1 | N=C(N)NCCC[C@H](N)C(=O)O [L-arginine] | – | – | – | – | – | – | – | – | pK1 [1]: 2.01; pK2 [1]: 9.04; pK3 [1]: 12.48; p I [1]: 10.76
2 | NCCCC[C@H](N)C(=O)O [L-lysine] | – | – | – | – | – | – | – | – | concentration of amino acid solution in water that can be easily prepared [2]: 1.0 M; pK1 [1]: 2.18; pK2 [1]: 8.95; pK3 [1]: 10.53; p I [1]: 9.47
3 | COc1cc([C@H]2Oc3cc([C@H]4Oc5cc(O)cc(O)c5C(=O)[C@@H]4O)ccc3O[C@@H]2CO)ccc1O [Silybin A, silybin A] | 0.12795 | 0.17841 | – | – | – | – | – | – | –
4 | COc1cc(C2Oc3cc([C@H]4Oc5cc(O)cc(O)c5C(=O)[C@@H]4O)ccc3OC2CO)ccc1O (stereo partly shown) [silybin] | – | – | 7.00 | pKa.2[25° C.] = 8.77; pKa.2[37° C.] = 8.77 | 9.57 | 6.86 | pKa.2[25° C.] = 8.77; pKa.2[37° C.] = 8.77 | 9.62 | solubility of silybin ([4]; Capryl-caprine triglyceride): 0.8 ± 0.5 mg/mL; solubility of silybin ([4]; Castor oil): 7.1 ± 1.2 mg/mL; solubility of silybin ([4]; Ethanol): 225.2 ± 5.2 mg/mL; solubility of silybin ([4]; Ethoxy diglycol): 350.1 ± 10.4 mg/mL; solubility of silybin ([4]; Ethyl linoleate): 2.1 ± 0.8 mg/mL; solubility of silybin ([4]; Fish oil): 0.5 ± 0.2 mg/mL; solubility of silybin ([4]; Glyceryl monooleate): 33.2 ± 2.8 mg/mL; solubility of silybin ([4]; Polyethylene glycol 200): 345.9 ± 9.5 mg/mL; solubility of silybin ([4]; Polyethylene glycol 400/ethanol (1:1)): 342.1 ± 7.1 mg/mL; solubility of silybin ([4]; Propylene glycol): 162.4 ± 3.6 mg/mL; solubility of silybin ([4]; Tocopherol): 20.0 ± 1.9 mg/mL; solubility of silybin ([4]; Water): 0.4 ± 0.1 mg/mL
5 | COc1cc([C@@H]2[C@H]3CO[C@@]4(O)C(=O)[C@@H]2C=C([C@H]2Oc5cc(O)cc(O)c5C(=O)[C@@H]2O)[C@@H]34)ccc1O [silydianin] | – | – | 6.64 | 7.78 | 9.66 | 7.10 | 8.93 | 10.06 | solubility ([3]; aqueous buffer, Buffer solution pH 4.5 (Bates, sodium acetate and hydrochloric acid, ionic strength 0.05)): 0.189 mg/mL (≈ 392 µM); solubility ([3]; purified water, water): 0.215 mg/mL (≈ 445 µM)
6 | Isosylibin | 0.07863 | 0.1129 | – | – | – | – | – | – | –

More lines, main results first:

Row | Solubility of individual component in the mixture according to Example 1 [3, 6] [mg/mL] | Solubility of individual component in the mixture according to Example 1 ([3]; Purified water) [mg/mL] | Compound | pKa.1 ([5]; 25° C.) | pKa.2 ([5]; 25° C.) | pKa.3 ([5]; 25° C.) | pKa.1 ([5]; 37° C.) | pKa.2 ([5]; 37° C.) | pKa.3 ([5]; 37° C.) | other results
7 | 0.20962 | 0.28905 | COc1cc([C@@H]2Oc3cc([C@H]4Oc5cc(O)cc(O)c5C(=O)[C@@H]4O)ccc3O[C@H]2CO)ccc1O [Silybin B, silybin B] | – | – | – | – | – | – | –
8 | 0.24157 | 0.25824 | COc1cc([C@@H]2Oc3c(O)cc([C@H]4Oc5cc(O)cc(O)c5C(=O)[C@@H]4O)cc3[C@H]2CO)ccc1O [silychristin] | 6.52 | 7.22 | 8.96 | 6.62 | 7.41 | 8.94 | –
